A word on the Kd: it is the constant that tells how readily two partners part at equilibrium.

One test concerns the target T1, fibrinogen D fragments (Homo sapiens, UniProt P02671+P02675+P02679, DEL434-453).
T1 construct: Fibrinogen D and E fragment were purchased from Calbiochem; purchased Calbiochem (La Jolla, Calif.)
T1 sequence (P02671 130-216 limits assumed): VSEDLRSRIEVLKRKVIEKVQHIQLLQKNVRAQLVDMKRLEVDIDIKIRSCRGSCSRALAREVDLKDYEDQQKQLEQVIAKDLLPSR
T1 sequence (P02675 164-491 limits assumed): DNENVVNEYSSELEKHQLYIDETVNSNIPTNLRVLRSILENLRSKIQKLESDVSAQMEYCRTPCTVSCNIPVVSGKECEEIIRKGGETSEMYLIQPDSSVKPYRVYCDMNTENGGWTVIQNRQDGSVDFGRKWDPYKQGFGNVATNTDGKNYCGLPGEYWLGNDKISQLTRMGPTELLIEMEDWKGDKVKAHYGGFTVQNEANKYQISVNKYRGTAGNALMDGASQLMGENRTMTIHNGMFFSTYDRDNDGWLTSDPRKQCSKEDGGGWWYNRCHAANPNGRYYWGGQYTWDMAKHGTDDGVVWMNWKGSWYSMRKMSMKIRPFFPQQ
T1 sequence (P02679 112-433 limits assumed): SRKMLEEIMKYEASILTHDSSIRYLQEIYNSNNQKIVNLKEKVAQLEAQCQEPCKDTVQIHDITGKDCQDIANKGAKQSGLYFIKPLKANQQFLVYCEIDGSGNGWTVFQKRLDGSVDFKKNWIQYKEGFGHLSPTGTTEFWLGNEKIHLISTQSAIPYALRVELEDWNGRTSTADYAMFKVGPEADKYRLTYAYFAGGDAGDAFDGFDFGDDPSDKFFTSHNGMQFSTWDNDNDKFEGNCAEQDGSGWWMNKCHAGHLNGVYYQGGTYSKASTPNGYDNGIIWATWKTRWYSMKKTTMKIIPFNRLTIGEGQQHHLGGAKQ
The test is described as follows: Inhibition binding assay: competition with MBP-MD4 for binding to fibrinogen D fragments. As to the method:
FIG. 8. Competitive binding of MD4 peptide in the interaction of MBP-MD4 to fibrinogen D fragments.
The protocol was based on the enzyme-linked immunosorbant binding assay as described above. However, the inhibitors were mixed with biotin labeled protein and allowed to bind to coated molecules in microtiter wells and incubated for 1 h at room temperature.
To measure the binding affinity of MD4 peptide to fibrinogen D fragments, fluorescence polarization experiments were carried out by incubating fluorescein labeled MD4 peptide with increasing concentration of fibrinogen D fragments and observing the change of polarization. The binding affinity of isolated MD4 peptide to fibrinogen D fragments in the presence of 15 uM ZnCl2 was saturable and the apparent dissociation constant, KD, was (8.4±1.6)×10^−8 M (FIG. 7). Competitive binding to D fragment was compared for a four amino acid peptide, G-P-R-P which is known to bind to fibrinogen γ chain (Pratt, 1997) and to prevent fibrinogen from forming fibrin (Laudano, 1978; Laudano, 1980), reduced and alkylated MD4, unlabeled MD4 peptide, and MBP-MD4. […] MD4 peptide binds to fibrinogen α and β chains in Western ligand binding assays whereas G-P-R-P peptide binds to the γ chain of fibrinogen, therefore, both peptides bound to different sites in D fragment.

Test [1] concerns the target T2, Human Fibrinogen/Bovine Thrombin (Homo sapiens, UniProt P02671+P02675+P02679).
T2 construct: purchased Chromogenix (Sweden)
T2 sequence (P02671 20-629 limits assumed): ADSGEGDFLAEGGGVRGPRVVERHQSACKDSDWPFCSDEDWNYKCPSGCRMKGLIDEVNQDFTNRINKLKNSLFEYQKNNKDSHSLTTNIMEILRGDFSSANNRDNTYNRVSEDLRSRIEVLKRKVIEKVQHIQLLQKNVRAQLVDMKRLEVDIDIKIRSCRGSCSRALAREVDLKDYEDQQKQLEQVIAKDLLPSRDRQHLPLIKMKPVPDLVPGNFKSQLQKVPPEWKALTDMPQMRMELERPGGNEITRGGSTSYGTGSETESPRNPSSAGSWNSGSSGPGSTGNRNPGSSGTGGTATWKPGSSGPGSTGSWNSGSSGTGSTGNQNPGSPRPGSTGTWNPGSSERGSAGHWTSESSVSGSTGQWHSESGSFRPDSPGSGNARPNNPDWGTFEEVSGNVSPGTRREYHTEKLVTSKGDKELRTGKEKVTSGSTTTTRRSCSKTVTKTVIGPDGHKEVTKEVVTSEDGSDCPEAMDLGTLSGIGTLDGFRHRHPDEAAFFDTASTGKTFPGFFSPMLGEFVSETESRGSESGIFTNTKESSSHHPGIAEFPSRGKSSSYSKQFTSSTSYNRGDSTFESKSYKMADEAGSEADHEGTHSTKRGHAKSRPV
T2 sequence (P02675 31-491): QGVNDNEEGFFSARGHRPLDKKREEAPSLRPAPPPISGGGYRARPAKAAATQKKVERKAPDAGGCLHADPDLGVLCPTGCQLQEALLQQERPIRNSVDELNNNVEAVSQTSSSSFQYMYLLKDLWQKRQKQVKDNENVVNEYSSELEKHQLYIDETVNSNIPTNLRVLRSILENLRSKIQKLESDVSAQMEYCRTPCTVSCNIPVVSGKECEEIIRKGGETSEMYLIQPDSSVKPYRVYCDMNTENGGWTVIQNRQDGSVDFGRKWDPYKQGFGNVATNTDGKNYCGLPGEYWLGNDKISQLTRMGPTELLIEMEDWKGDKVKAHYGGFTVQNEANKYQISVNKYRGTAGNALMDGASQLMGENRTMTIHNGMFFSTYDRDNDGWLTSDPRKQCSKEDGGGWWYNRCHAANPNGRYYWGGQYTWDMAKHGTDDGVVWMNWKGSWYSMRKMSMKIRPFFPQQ
T2 sequence (P02679 27-433 limits assumed): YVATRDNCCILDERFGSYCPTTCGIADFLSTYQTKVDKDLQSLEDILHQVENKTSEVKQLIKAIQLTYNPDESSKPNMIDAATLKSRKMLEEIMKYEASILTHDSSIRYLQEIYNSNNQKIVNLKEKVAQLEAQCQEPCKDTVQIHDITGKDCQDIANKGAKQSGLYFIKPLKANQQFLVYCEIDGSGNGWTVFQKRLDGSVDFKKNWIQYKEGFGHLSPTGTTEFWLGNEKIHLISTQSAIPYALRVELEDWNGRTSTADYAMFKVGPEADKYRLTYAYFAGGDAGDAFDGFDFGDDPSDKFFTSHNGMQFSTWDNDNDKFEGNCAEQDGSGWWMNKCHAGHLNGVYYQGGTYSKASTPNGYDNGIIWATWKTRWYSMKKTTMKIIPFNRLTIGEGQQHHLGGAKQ
The test is described as follows: Clotting assay (fibrinogen plus thrombin, time to gel-like clot). The format is biochemical. The note with it: for Human Fibrinogen/Bovine Thrombin Clotting Time: 1 mg/ml fibrinogen, 1 unit/ml thrombin. As to the method: These tests were conducted by incubating 1 mg of human fibrinogen with desired peptides in 20 mM Tris-HCl, 150 mM NaCl, pH 7.5 in the presence or absence of Zn^2+ for at least 30 min followed by adding 1 unit of bovine thrombin. The total volume of each reaction was 1 ml and the reaction was observed by counting the time for allowing the solution to form a gel like clot in the test tube.
A four amino acid long peptide, G-P-R-P, binds to the γ chain of fibrinogen D fragment and prolongs the clotting time in a closed system containing fibrinogen and thrombin (Laudano, 1978; Laudano, 1980).

The target in a further test is T3, fibrinogen D fragment (Homo sapiens, UniProt P02671+P02675+P02679, DEL434-453).
T3 construct: G-P-R-P peptide to fibrinogen D fragment
T3 sequence (P02671 130-216 limits assumed): T1 sequence (P02671 130-216 limits assumed)
T3 sequence (P02675 164-491 limits assumed): T1 sequence (P02675 164-491 limits assumed)
T3 sequence (P02679 112-433 limits assumed): T1 sequence (P02679 112-433 limits assumed)
The note with it: Laudano, 1978; read-out: reported binding affinity KD to fibrinogen D fragment; cited from earlier work.

For the molecule G-P-R-P, at fibrinogen D fragments, the “competition with MBP-MD4 for binding to fibrinogen D fragments” value was “Neither G-P-R-P peptide, nor reduced and alkylated MD4 peptide could inhibit”. In addition, in test [1] (100 uM peptide, fibrinogen and thrombin, 15 uM ZnCl2), the “delay of clot formation” value is 10 min. Further, the “Human Fibrinogen/Bovine Thrombin Clotting Time” value in test [1] (peptide 0.1 mM, 20 mM Tris, 150 mM NaCl, 15 μM ZnCl2, pH 7.4) amounted to 10 min. The dissociation constant (Kd) at fibrinogen D fragment is 17 µM.

Regarding `O=C(O)CN(CCN(CC(=O)O)CC(=O)O)CC(=O)O` [EDTA], in test [1] (1 mM EDTA), the “Human Fibrinogen/Bovine Thrombin Clotting Time” value was 12 min.
